Data: patent US6723897B2, “Methods for controlling gibberellin levels” (Monsanto Technology, LLC, priority 1998, dated 2004)

Legend:
[1] = system: AX5/antisense CPScc soybean line 46 (R2); test: Hilum seed treatment of epicotyl-intensive GA-deficient soybean, seedling height (FIG. 42); format: in vivo, Glycine max; details: 8 DAP
Experimental: These studies are performed on soybean plants engineered to express their GA-deficient phenotype throughout the life cycle via the use of the constitutive FMV promoter (line 719, FMV/antisense CPScc). In contrast to the constitutive FMV promoter, the peak activity of the AX5 promoter is developmentally restricted to the soybean seedling axis (epicotyl) three to five days after the start of imbibition, with limited expression beyond the seedling stage of development. Soybean lines transformed with the […] cassette therefore display an epicotyl-intensive dwarf phenotype. In these lines, inhibition of the hypocotyl is modest; most of the total height reduction in these plants is due to shortening of the epicotyl. Rescue of […] soybean plants therefore presents different technical challenges from those required for rescue of constitutively GA-deficient transgenic dwarf soybean lines containing the […] construct. […] Seed from both lines is produced from greenhouse-grown plants. […] If multiple applications are made to seeds, the previous application is allowed to dry before a subsequent application is made. […] (29° C.) day and 75° F. night (24° C.). Pots are watered as necessary by overhead hand watering. Hypocotyl and epicotyl measurements are made for each plant at various stages of plant growth. […] The results are shown in FIG. 42, where the error bar represents +/-two times the standard error of the mean (n=12-15). […] The upper dashed horizontal line represents the total height of untreated wild-type […] soybeans. Measurements are made 8 days after planting.

[2] = Distribution of 14C label in soybean plant parts after seed treatment
Experimental: (§1) ^14C-radiolabelled compounds are obtained from Lew Mander (Australian National University). ^14C-GA3 is dissolved in water:ethanol, 80:20, v/v; ^14C-GA9 and ^14C-GA12 are dissolved in 100% ethanol. Seeds of Asgrow 3237 soybeans are treated separately with solutions of each of the ^14C-radiolabelled compounds (1.7-6.8 μg; 10-40 ppm; 111,000-2,000,000 dpm/seed) by placing one to four μl of the dosing solution directly on the seed coat (^14C-GA3, GA9, and GA12), or on the hilum portion of the seed (^14C-GA3). After evaporation of the carrier solvent (approx. one hour), the treated seed is planted in containers containing approximately 30 gm of Metromix-350, and transferred to a growth chamber. Plants are grown under a 12 hour light/12 hour dark regime at 92° F. (33° C.)and 75% humidity. The pattern of uptake and translocation of ^14C-radioactivity in treated seed is monitored up to 12 days past initial treatment. For most experiments, three replicate plants are harvested at one hour after treatment, one day after treatment (DAT), two DAT, three DAT, six or seven DAT, and 12 DAT. At the time of each harvest, plants are divided into leaves, epicotyl, cotyledon, hypocotyl, and roots. The level of ^14C-radioactivity in different plant parts is determined by extraction of plant tissues with aqueous methanol and scintillation counting. The extent of metabolism of the ^14C-labelled GA compounds in planta is determined by HPLC analysis of plant extracts. The details are as follows.
(§2) The general extraction procedure consisted of blending the plant parts in a high speed polytron tissue homogenizer for 1-5 minutes with 10-20 ml of ice-cold methanol:water, 80:20, v/v, followed by vacuum filtration through a Whatman glass fiber filter. The filter cake is re-extracted as necessary using the procedure described above until an insignificant amount of radioactivity is removed. Prior to combining the extracts from each sample, aliquots are weighed and analyzed by liquid scintillation counting (LSC) to determine the amount of extracted radioactivity in each extract. Aliquots of the air-dried filter cakes are combusted and analyzed by LSC in order to determine the amount of non-extracted radioactivity. The extracts are combined and, when necessary, concentrated by rotary evaporation at a bath temperature of less than 35° C. to a small volume for analysis by HPLC to determine the extent of metabolism of the ^14C-labelled GA compounds in planta.

[3] = Half-lives of 14C-labelled GA compounds in planta; details: for Half-life (days) in planta: ^14C-labelled compound on seed of Asgrow 3237 soybeans
Experimental: as §1, with “At the time of each harvest, plants are divided into leaves, epicotyl, cotyledon, hypocotyl, and roots.” left out, “The details are as follows.” left out
as §2, with “The extracts are combined and, when necessary, concentrated by rotary evaporation at a bath temperature of less than 35° C. to a small volume for analysis by HPLC to determine the extent of metabolism of the ^14C-labelled GA compounds in planta.” left out

[4] = system: AX5/antisense CPScc soybean line 234 (R3); test: Hilum seed treatment of epicotyl-intensive GA-deficient soybean, height (FIG. 43); format: in vivo, Glycine max; details: 10 DAP; for restoration of height of line 234 soybeans: hypocotyl and epicotyl elongation, hypocotyl to epicotyl ratio not maintained; for response of line 234 height: seed treatment rates between 0.1 and 1 μg/seed
Experimental: The purpose of this study is to evaluate the ability of four GA compounds, i.e., GA9, GA5, GA3-3-acetate, and GA12, to restore normal growth in AX5/antisense CPScc soybean lines when applied as a seed treatment.
Line 46 plants are R2; Line 234 plants are R3.
The GA compounds are dissolved in ethanol and applied to the hilum of dry seeds as not more than 10 μl droplets with a syringe. If multiple applications are made to seeds, the previous application is allowed to dry before a subsequent application is made.
Seeds are sown 1 inch deep in commercial potting soil (Metromix 200) in 4-inch plastic pots and placed in a greenhouse set for 12 hours artificial light and a temperature regime of 85° F. (29° C.) day and 75° F. night (24° C.). Pots are watered as necessary by overhead hand watering. Hypocotyl and epicotyl measurements are made for each plant at various stages of plant growth.
The lower dashed horizontal line represents the total height of untreated AX5 line 234 soybeans. The upper dashed horizontal line represents the total height of untreated wild-type A4922 soybeans. Measurements are made 10 days after planting.

| SMILES | activity relative to GA3, GA3-3-acetate and GA5 [1] | effect on line 46 total height [1] | ^14C Label Distribution (% of dose), Cotyledon ([2]; 3 DAP) | ^14C Label Distribution (% of dose), Hypocotyl ([2]; 3 DAP) | ^14C Label Distribution (% of dose), Root ([2]; 3 DAP) | ^14C Label Distribution (% of dose), Cotyledon ([2]; 12 DAP) | ^14C Label Distribution (% of dose), Epicotyl ([2]; 12 DAP) | ^14C Label Distribution (% of dose), Hypocotyl ([2]; 12 DAP) | ^14C Label Distribution (% of dose), Leaves ([2]; 12 DAP) | ^14C Label Distribution (% of dose), Root ([2]; 12 DAP) | Half-life (days) in planta [3] [days] | activity relative to GA3, GA3-3-acetate and GA5 [4] | restoration of height of line 234 soybeans [4] | half-life ([3]; Asgrow 3237, soybean (Glycine max), in vivo) [h] | response of line 234 height [4] | line 46 seedling height ([1]; concentrations up to 40 μg/seed) |
| --- | --- | --- | --- | --- | --- | --- | --- | --- | --- | --- | --- | --- | --- | --- | --- | --- |
| C=C1C[C@]23C[C@H]1CC[C@H]2[C@@]12CCC[C@@](C)(C(=O)O1)[C@H]2[C@@H]3C(=O)O [GA9] | approximately ten times less active | rescued AX5/asCPScc soybean line 46 total height, with some hypocotyl over-elongation | 60 % of dose | 6.8 % of dose | 1.3 % of dose | 54 % of dose | 0.1 % of dose | 1.0 % of dose | 0.3 % of dose | 1.0 % of dose | <1 | approximately 10 times less active | restore normal height to line 234 soybeans |  |  |  |
| C=C1C[C@]23C[C@@]1(O)CC[C@H]2[C@@]12C=C[C@H](O)[C@@](C)(C(=O)O1)[C@H]2[C@@H]3C(=O)O [GA3, gibberellic acid] |  | rescued AX5/asCPScc soybean line 46 total height, with some hypocotyl over-elongation | 85 % of dose | 1.5 % of dose | 0.5 % of dose | 72 % of dose | 0.2 % of dose | 1.4 % of dose | 0.9 % of dose | 2.8 % of dose |  |  | restore normal height to line 234 soybeans | 48 to 72 | generally similar response |  |
| C=C1C[C@]23C[C@H]1CC[C@H]2[C@]1(C)CCC[C@@](C)(C(=O)O)[C@H]1[C@@H]3C(=O)O [GA12] |  | reduced plant height | 55 % of dose | 1.7 % of dose | 3.5 % of dose | 45 % of dose | 0.2 % of dose | 0.9 % of dose | 0.7 % of dose | 3.0 % of dose | <1 |  |  |  |  | did not increase line 46 seedling height |
| C=C1C[C@]23C[C@@]1(O)CC[C@H]2[C@@]12CC=C[C@@](C)(C(=O)O1)[C@H]2[C@@H]3C(=O)O [GA5] |  | rescued AX5/asCPScc soybean line 46 total height, with some hypocotyl over-elongation |  |  |  |  |  |  |  |  |  |  | restore normal height to line 234 soybeans |  | generally similar response |  |
| C=C1C[C@]23C[C@@]1(O)CC[C@H]2[C@@]12C=C[C@H](OC(C)=O)[C@@](C)(C(=O)O1)[C@H]2[C@@H]3C(=O)O [GA3-3-acetate] |  | rescued AX5/asCPScc soybean line 46 total height, with some hypocotyl over-elongation |  |  |  |  |  |  |  |  |  |  | restore normal height to line 234 soybeans |  | generally similar response |  |
